Experimental data published in patent US8557839B2, “Fused ring azadecalin glucocorticoid receptor modulators” (Corcept Therapeutics, Inc., priority 2004, dated 2013).

Key:
[1] = molecular target: T1, glucocorticoid receptors (Homo sapiens, UniProt P04150); assay: Glucocorticoid receptor binding displacement assay with 3H-dexamethasone; set-up: This GR was a full-length steroid hormone receptor; host or cells: recombinant baculovirus-infected insect cells
T1 sequence (P04150 1-777): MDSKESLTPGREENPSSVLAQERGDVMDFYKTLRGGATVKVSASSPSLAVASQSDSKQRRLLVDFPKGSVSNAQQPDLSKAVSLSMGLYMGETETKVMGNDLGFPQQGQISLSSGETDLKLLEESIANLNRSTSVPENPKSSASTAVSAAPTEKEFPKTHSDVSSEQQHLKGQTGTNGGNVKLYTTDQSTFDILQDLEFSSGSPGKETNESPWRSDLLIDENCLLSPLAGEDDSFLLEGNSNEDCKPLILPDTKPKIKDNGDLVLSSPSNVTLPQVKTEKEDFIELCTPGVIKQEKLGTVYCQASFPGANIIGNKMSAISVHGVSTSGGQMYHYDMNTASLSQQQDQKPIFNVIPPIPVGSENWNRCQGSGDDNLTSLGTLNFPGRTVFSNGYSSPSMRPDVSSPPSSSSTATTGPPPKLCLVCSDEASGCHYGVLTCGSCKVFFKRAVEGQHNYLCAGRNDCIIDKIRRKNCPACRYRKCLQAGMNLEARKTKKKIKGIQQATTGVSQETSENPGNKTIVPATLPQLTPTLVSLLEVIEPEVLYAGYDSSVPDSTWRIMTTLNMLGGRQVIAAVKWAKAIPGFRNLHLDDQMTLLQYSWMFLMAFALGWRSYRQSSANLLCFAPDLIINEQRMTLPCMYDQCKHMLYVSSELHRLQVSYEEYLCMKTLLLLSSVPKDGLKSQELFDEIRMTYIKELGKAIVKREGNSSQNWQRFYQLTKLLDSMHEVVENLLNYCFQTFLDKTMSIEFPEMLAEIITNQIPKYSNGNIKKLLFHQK
Description: The source of the receptor was recombinant baculovirus-infected insect cells. This GR was a full-length steroid hormone receptor likely to be associated with heat-shock and other endogenous proteins.
For the Primary Screen, test compounds were tested at 1 μM in duplicate. These compounds were diluted from 10 mM stock in 100% DMSO. After dilution to 100 μM, 5 μl were added to 245 μl assay buffer to obtained 2 μM compound and 2% DMSO.
For the IC50 determinations, test compounds were tested at 6 concentrations in duplicate (concentration range depends on % inhibition binding that was obtained in the Primary Screen). Test compounds were diluted from 10 mM stock in 100% DMSO. The tested solutions were prepared at 2× final assay concentration in 2% DMSO/assay buffer.
All reagents and the assay plate were kept on ice during the addition of reagents. […] After the additions, the incubation mixture was mixed and incubated for 2.5 hrs at 4° C.
After 2.5 hrs incubation, unbound counts were removed with dextran coated charcoal (DCC) as follows: 25 μl of DCC solution (10% DCC in assay buffer) was added to all wells and mixed (total volume 225 μl). The plate was centrifuged at 4000 rpm for 10 minutes at 4° C. 75 μl of the supernatants (i.e.⅓ of total volume) was carefully pipetted into an optiplate. 200 μl of scintillation cocktail were added (Microscint-40, Packard Bioscience. B.V.). The plate was vigorously shaken for approx. 10 minutes and counted on Topcount.
The IC50 values were converted to Ki (the inhibition constant) using the Cheng-Prusoff equation.
Reagents: Assay buffer: 10 mM potassium phosphate buffer pH 7.6 containing 5 mM DTT, 10 mM sodium molybdate, 100 μM EDTA and 0.1% BSA.

[2] = molecular target: T1, glucocorticoid receptors; assay: GR functional assay using SW1353/MMTV-5 cells (dexamethasone-induced luciferase); type: cell-based; set-up: contains endogenous glucocorticoid receptors; endogenous in cells; host or cells: SW1353/MMTV-5 (human chondrosarcoma, stably carrying the pMAMneo-Luc reporter)
Description: SW1353/MMTV-5 is an adherent human chondrosarcoma cell line that contains endogenous glucocorticoid receptors. It was transfected with a plasmid (pMAMneo-Luc) encoding firefly luciferase located behind a glucocorticoid-responsive element (GRE) derived from a viral promoter (long terminal repeat of mouse mammary tumor virus). A stable cell line SW1353/MMTV-5 was selected with geneticin, which was required to maintain this plasmid.
SW1353/MMTV-5 cells were distributed in 96-well plates and incubated in medium (without geneticin) for 24 hrs (in the absence of CO2).

[3] = Ki from IC50 by Cheng-Prusoff, 2.5 nM 3H-dexamethasone, read-out: GR Binding
[4] = SW1353/MMTV-5 cells, antagonism of 50 nM dexamethasone, luciferase, read-out: GR Functional

| Compound | Ki [1, 3] | Ki ([2]; read-out: GR Functional) | Ki [1] | Ki [2] | Ki [2, 4] |
| --- | --- | --- | --- | --- | --- |
| O=S(=O)(c1ccc(N2CCOCC2)nc1)N1CCC2=Cc3c(cnn3-c3ccc(F)cc3)CC2(Cc2ccc(F)cc2)C1 (centres unmarked) | < 10 nM | 10 to 100 nM |  |  |  |
| O=S(=O)(c1ccc(N2CCOCC2)cc1)N1CCC2=Cc3[nH]ncc3CC2(Cc2ccccc2)C1 (centres unmarked) [drawing 246] | < 10 nM | > 100 nM |  |  |  |
| CN(CCO)C[C@]12Cc3cnn(-c4ccc(F)cc4)c3C=C1CCN(S(=O)(=O)c1ccc(C(C)(C)C)cc1)C2 | < 10 nM | < 10 nM |  |  |  |
| COC[C@]12Cc3cnn(-c4ccc(F)cc4)c3C=C1CCN(S(=O)(=O)c1ccc(C)cc1)C2 | < 10 nM | < 10 nM |  |  |  |
| CC(C)(C)c1ccc(S(=O)(=O)N2CCC3=Cc4c(cnn4-c4ccc(F)cc4)C[C@]3(C(=O)NCc3ccccc3)C2)cc1 | 10 to 100 nM | > 100 nM |  |  |  |
| COC[C@]12Cc3cnn(-c4ccc(F)cc4)c3C=C1CCN(S(=O)(=O)c1ccc(F)cc1)C2 | < 10 nM | 10 to 100 nM |  |  |  |
| COC[C@]12Cc3cnn(-c4ccc(F)cc4)c3C[C@@H]1CCN(S(=O)(=O)c1ccc(C(C)(C)C)cc1)C2 | < 10 nM | > 100 nM |  |  |  |
| O=S(=O)(c1ccc(F)cc1)N1CCC2=Cc3c(cnn3-c3ccc(F)cc3)C[C@]2(CN2CCCC2)C1 | < 10 nM | < 10 nM |  |  |  |
| CC(C)(C)c1ccc(S(=O)(=O)N2CCC3=Cc4c(cnn4-c4ccc(F)cc4)CC3(Cc3ccc(F)cc3)C2)cc1 (centres unmarked) |  |  | < 10 nM | 10 to 100 nM |  |
| CCCCn1ncc2c1C=C1CCN(S(=O)(=O)c3ccc(C)cc3)C[C@@]1(COC)C2 | 10 to 100 nM | > 100 nM |  |  |  |
| Fc1ccc(CC23Cc4cnn(-c5ccc(F)cc5)c4C=C2CCN(Cc2cccnc2)C3)cc1 (centres unmarked) |  |  | 10 to 100 nM | > 100 nM |  |
| CC(C)(C)c1ccc(S(=O)(=O)N2CCC3=Cc4c(cnn4Cc4ccccc4)CC3(Cc3ccccc3)C2)cc1 (centres unmarked) [drawing 253] | < 10 nM |  |  |  | > 100 nM |
| CC(C)S(=O)(=O)N1CCC2=Cc3c(cnn3-c3ccc(F)cc3)CC2(Cc2ccccc2)C1 (centres unmarked) | > 100 nM | > 100 nM |  |  |  |
| CN(C)CC[C@]12Cc3cnn(-c4ccc(F)cc4)c3C=C1CCN(S(=O)(=O)c1ccc(C(C)(C)C)cc1)C2 | 10 to 100 nM | 10 to 100 nM |  |  |  |
| CC(C)(C)c1ccc(S(=O)(=O)N2CCC3=Cc4c(cnn4Cc4ccccc4)CC3(Cc3ccccc3)C2)cc1 (centres unmarked) [drawing 237] | < 10 nM | > 100 nM |  |  |  |
| CC(C)(C)c1ccc(S(=O)(=O)N2CCC3=Cc4c(cnn4-c4ccc(F)cc4)C[C@]3(COCCN3CCOCC3)C2)cc1 | 10 to 100 nM | > 100 nM |  |  |  |
| COCCOC[C@]12Cc3cnn(C4CCCC4)c3C=C1CCN(S(=O)(=O)c1ccc(C)cc1)C2 | < 10 nM | 10 to 100 nM |  |  |  |

| Compound | Ki [1, 3] | Ki ([2]; read-out: GR Functional) | Ki [1] | Ki [2] | Ki [2, 4] |
| --- | --- | --- | --- | --- | --- |
| CC(C)(C)c1ccc(S(=O)(=O)N2CCC3=Cc4c(cnn4-c4ccc(S(N)(=O)=O)cc4)CC3(Cc3ccccc3)C2)cc1 (centres unmarked) [drawing 256] | 10 to 100 nM |  |  |  | > 100 nM |
| COC[C@]12Cc3cnn(-c4ccc(F)cc4)c3C=C1CCN(S(=O)(=O)c1ccccc1)C2 | < 10 nM | 10 to 100 nM |  |  |  |
| CCCCn1ncc2c1C=C1CCN(S(=O)(=O)c3ccc(C(C)(C)C)cc3)C[C@@]1(C(=O)OC)C2 | 10 to 100 nM | > 100 nM |  |  |  |
| CN1CCN(S(=O)(=O)N2CCC3=Cc4c(cnn4-c4ccc(F)cc4)CC3(Cc3ccc(F)cc3)C2)CC1 (centres unmarked) | 10 to 100 nM | > 100 nM |  |  |  |
| CC(C)(C)c1ccc(S(=O)(=O)N2CCC3=Cc4c(cnn4-c4ccc(C#N)cc4)CC3(Cc3ccccc3)C2)cc1 (centres unmarked) [drawing 255] | < 10 nM |  |  |  | 10 to 100 nM |
| CC(O)[C@]12Cc3cnn(-c4ccc(F)cc4)c3C=C1CCN(S(=O)(=O)c1ccc(C(C)(C)C)cc1)C2 (some centres unmarked) | < 10 nM | 10 to 100 nM |  |  |  |
| O=S(=O)(c1ccccc1)N1CCC2=Cc3c(cnn3-c3ccc(F)cc3)C[C@]2(COCCO)C1 | < 10 nM | 10 to 100 nM |  |  |  |
| CC(C)(C)c1ccc(S(=O)(=O)N2CCC3=Cc4c(cnn4-c4ccc(S(N)(=O)=O)cc4)CC3(Cc3ccccc3)C2)cc1 (centres unmarked) [drawing 240] | 10 to 100 nM | > 100 nM |  |  |  |
| Cc1ccc(S(=O)(=O)N2CCC3=Cc4c(cnn4-c4ccc(F)cc4)C[C@]3(CN3CCCC3)C2)cc1 | < 10 nM | < 10 nM |  |  |  |
| O=S(=O)(c1ccccc1)N1CCC2=Cc3c(cnn3-c3ccc(F)cc3)C[C@]2(CN2CCCCC2)C1 |  |  | < 10 nM | 10 to 100 nM |  |
| CC(C)(C)c1ccc(S(=O)(=O)N2CCC3=Cc4c(cnn4-c4ccc(F)cc4)C[C@]3(CO)C2)cc1 | < 10 nM | 10 to 100 nM |  |  |  |
| CC(C)n1ncc2c1C=C1CCN(S(=O)(=O)c3ccc(C(C)(C)C)cc3)C[C@@]1(CN(C)C)C2 | 10 to 100 nM | > 100 nM |  |  |  |
| CCN(CC)C[C@]12Cc3cnn(-c4ccc(F)cc4)c3C=C1CCN(S(=O)(=O)c1ccc(OC)cc1)C2 | < 10 nM | 10 to 100 nM |  |  |  |
| Cn1cc2c(n1)C=C1CCN(S(=O)(=O)c3ccc(C(C)(C)C)cc3)CC1(Cc1ccccc1)C2 (centres unmarked) [drawing 232] | < 10 nM | > 100 nM |  |  |  |
| C[C@]12Cc3cnn(-c4ccc(F)cc4)c3C=C1CCN(S(=O)(=O)N1CCCCC1)C2 | 10 to 100 nM | > 100 nM |  |  |  |
| O=S(=O)(N1CCCCC1)N1CCC2=Cc3c(cnn3-c3ccc(F)cc3)CC2(Cc2ccc(F)cc2)C1 (centres unmarked) | 10 to 100 nM | > 100 nM |  |  |  |
| CCCCn1ncc2c1C=C1CCN(S(=O)(=O)c3ccc(C(C)(C)C)cc3)C[C@@]1(CN1CCCCC1)C2 | < 10 nM | 10 to 100 nM |  |  |  |
